What was measured:
Sirt1 = molecular target: T1, Sirt1 (Homo sapiens, UniProt Q96EB6); details: cited from earlier work
T1 sequence (Q96EB6 1-747): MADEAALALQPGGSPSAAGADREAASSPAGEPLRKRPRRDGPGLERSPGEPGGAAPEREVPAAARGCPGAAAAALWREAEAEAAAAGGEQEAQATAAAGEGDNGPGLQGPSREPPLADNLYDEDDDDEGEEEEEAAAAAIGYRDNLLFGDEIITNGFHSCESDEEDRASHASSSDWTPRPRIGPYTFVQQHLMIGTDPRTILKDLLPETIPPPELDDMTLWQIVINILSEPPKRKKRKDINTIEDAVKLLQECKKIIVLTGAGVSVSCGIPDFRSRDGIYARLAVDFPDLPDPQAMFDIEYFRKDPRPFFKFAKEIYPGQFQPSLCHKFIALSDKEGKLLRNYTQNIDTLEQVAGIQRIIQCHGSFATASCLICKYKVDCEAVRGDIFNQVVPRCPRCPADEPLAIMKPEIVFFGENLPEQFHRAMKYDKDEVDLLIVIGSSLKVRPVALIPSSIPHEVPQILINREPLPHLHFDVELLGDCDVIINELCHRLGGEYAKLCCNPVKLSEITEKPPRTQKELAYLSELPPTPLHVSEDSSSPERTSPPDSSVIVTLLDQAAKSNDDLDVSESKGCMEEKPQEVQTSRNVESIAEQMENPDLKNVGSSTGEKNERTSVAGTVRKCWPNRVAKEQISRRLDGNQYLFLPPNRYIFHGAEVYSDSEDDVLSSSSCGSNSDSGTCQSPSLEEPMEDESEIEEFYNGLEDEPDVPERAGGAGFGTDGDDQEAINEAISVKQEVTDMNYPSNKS

Sirt2 = molecular target: T2, Sirt2 (Homo sapiens, UniProt Q8IXJ6); details: cited from earlier work
T2 sequence (Q8IXJ6 1-389): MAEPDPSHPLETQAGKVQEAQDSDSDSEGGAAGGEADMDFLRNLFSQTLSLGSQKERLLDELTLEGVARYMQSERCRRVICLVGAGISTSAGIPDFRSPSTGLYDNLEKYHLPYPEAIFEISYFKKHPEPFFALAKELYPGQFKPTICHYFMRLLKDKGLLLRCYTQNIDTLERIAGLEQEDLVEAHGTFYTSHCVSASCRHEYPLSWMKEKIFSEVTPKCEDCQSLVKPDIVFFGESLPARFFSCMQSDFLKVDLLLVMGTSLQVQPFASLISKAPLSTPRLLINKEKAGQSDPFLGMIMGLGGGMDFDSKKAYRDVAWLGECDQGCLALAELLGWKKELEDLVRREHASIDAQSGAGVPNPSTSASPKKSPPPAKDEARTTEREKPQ

Sirt3 = molecular target: T3, Sirt3 (Homo sapiens, UniProt Q9NTG7); details: cited from earlier work
T3 sequence (Q9NTG7 1-399): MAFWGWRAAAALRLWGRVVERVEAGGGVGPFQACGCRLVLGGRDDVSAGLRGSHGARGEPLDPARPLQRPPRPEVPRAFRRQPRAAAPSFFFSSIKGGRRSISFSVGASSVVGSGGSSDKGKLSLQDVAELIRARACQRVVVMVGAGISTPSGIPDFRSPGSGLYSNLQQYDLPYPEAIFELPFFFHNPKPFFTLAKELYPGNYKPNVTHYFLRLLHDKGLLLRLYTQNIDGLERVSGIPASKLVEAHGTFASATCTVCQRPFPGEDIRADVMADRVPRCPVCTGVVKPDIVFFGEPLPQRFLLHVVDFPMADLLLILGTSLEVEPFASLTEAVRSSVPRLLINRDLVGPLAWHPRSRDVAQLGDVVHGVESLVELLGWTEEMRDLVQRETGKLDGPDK

BV2 cells = test: LPS-induced inflammatory gene mRNA expression; details: 30 μM pretreatment 30 minutes, 100 ng/mL LPS 6 hours

For `c1cncc(C2Nc3ccccc3-n3cccc32)c1` (stereo not shown) [UBCS039, reference compound], the “effect on basal Sirt1 deacetylation activity” value (Sirt1) is listed as “no obvious effects”, the “effect on basal Sirt2 deacetylation activity” value (Sirt2) is listed as “no obvious effects” and the “effect on basal Sirt3 deacetylation activity” value (Sirt3) is listed as “no obvious effects”. The “LPS-induced expression of IL-1β” value (BV2 cells) was “strongly inhibited”, the “LPS-induced expression of IL-6” value (BV2 cells) was “strongly inhibited” and the “LPS-induced expression of MCP-1” value (BV2 cells) was “strongly inhibited”. For the same molecule, the “LPS-induced expression of TNFα” value (BV2 cells) was “strongly inhibited”.

From PMC9805530 (European journal of medicinal chemistry, 2022)
